The record followed here is patent US9694016B2 (Novartis AG, priority 2013, dated 2017).

In the assay the target is b-Raf (V600E) (Homo sapiens (Human), UniProt P15056, V600E). Particulars: read-out: b-Raf IC-50; AlphaScreen, 60 min pre-incubation, reaction 3 hours at room temperature. A general note: Bead proximity is the source of the signal in Alpha formats.
Chain of b-Raf (V600E) (P15056 whole entry V600E): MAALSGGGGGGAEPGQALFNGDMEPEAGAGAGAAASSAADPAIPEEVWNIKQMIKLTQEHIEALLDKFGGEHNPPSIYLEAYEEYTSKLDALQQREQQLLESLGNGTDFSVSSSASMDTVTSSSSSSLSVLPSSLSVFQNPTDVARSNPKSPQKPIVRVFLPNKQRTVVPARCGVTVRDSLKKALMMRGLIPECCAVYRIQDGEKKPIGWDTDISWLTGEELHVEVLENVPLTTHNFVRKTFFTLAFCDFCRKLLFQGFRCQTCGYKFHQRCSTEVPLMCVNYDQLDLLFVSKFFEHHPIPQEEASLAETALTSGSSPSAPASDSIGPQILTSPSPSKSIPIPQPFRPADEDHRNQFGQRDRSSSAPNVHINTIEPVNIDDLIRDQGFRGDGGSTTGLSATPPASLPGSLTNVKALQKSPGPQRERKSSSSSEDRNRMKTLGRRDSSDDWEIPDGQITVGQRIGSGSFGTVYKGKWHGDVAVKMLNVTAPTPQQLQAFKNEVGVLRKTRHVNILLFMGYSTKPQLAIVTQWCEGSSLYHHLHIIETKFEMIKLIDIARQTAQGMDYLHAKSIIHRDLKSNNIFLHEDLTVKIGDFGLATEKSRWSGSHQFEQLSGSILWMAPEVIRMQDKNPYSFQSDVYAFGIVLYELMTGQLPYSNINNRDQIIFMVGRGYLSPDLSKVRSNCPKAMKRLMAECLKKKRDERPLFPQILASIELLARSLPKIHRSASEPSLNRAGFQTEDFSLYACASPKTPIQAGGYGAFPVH
In the case of `Cc1ccc(NC(=O)c2ccnc(C(F)F)c2)cc1-c1cc(NCCO)nc(N2CCOCC2)c1` [Example 1053, 2-(difluoromethyl)-N-(3-(2-((2-hydroxyethyl)amino)-6-morpholinopyridin-4-yl)-4-methylphenyl)isonicotinamide], the IC50 worked out at 0.86 nM.

Regarding `Cc1ccc(NC(=O)c2ccnc(C(F)(F)F)c2)cc1-c1cc(NC2CCOC2)nc(N2CCOCC2)c1` (stereo not drawn) [Example 1054, N-(4-methyl-3-(2-morpholino-6-((tetrahydrofuran-3-yl)amino)pyridin-4-yl)phenyl)-2-(trifluoromethyl)isonicotinamide], the IC50 worked out at 1.18 nM. As to `Cc1ccc(NC(=O)c2ccnc(C(F)(F)F)c2)cc1-c1cc(NCC2CCOC2)nc(N2CCOCC2)c1` (stereo not drawn) [Example 1055, N-(4-methyl-3-(2-morpholino-6-(((tetrahydrofuran-3-yl)methyl)amino)pyridin-4-yl)phenyl)-2-(trifluoromethyl)isonicotinamide], the IC50 was 1.17 nM.

As for `Cc1ncc(NC(=O)c2ccnc(C(C)(C)F)c2)cc1-c1cc(NCCO)nc(N2CCOCC2)c1` [Example 1056, 2-(2-fluoropropan-2-yl)-N-(2′-((2-hydroxyethyl)amino)-2-methyl-6′-morpholino-[3,4′-bipyridin]-5-yl)isonicotinamide], the IC50 came to 11.2 nM. As for `Cc1ncc(NC(=O)c2ccnc(C3CC3)c2)cc1-c1cc(NCCO)nc(N2CCOCC2)c1` [Example 1057, 2-cyclopropyl-N-(2′-((2-hydroxyethyl)amino)-2-methyl-6′-morpholino-[3,4′-bipyridin]-5-yl)isonicotinamide], the figure is 4.12 nM. For the compound `CCC(F)(F)c1cc(C(=O)Nc2cnc(C)c(-c3cc(NCCO)nc(N4CCOCC4)c3)c2)ccn1` [Example 1058, 2-(1,1-difluoropropyl)-N-(2′-((2-hydroxyethyl)amino)-2-methyl-6′-morpholino-[3,4′-bipyridin]-5-yl)isonicotinamide], the IC50 was found to be 10.8 nM. As for `Cc1ccc(NC(=O)c2ccnc(C(C)(C)C#N)c2)cc1-c1cc(N2CCOCC2)nc(N2CC(O)C2)c1` [Example 1059, 2-(2-cyanopropan-2-yl)-N-(3-(2-(3-hydroxyazetidin-1-yl)-6-morpholinopyridin-4-yl)-4-methylphenyl)isonicotinamide], the figure is 3.84 nM; as for `Cc1ccc(NC(=O)c2ccnc(C(F)(F)F)c2)cc1-c1cc(N2CCOCC2)nc(N2CC(O)C2)c1` [Example 1060, N-(3-(2-(3-hydroxyazetidin-1-yl)-6-morpholinopyridin-4-yl)-4-methylphenyl)-2-(trifluoromethyl)isonicotinamide], 3.93 nM. As for `CCn1cc(C(=O)Nc2ccc(C)c(-c3cc(N4CCOCC4)nc(N4CC(O)C4)c3)c2)cc(C(F)(F)F)c1=O` [Example 1061, 1-ethyl-N-(3-(2-(3-hydroxyazetidin-1-yl)-6-morpholinopyridin-4-yl)-4-methylphenyl)-6-oxo-5-(trifluoromethyl)-1,6-dihydropyridine-3-carboxamide], the figure is 3.05 nM.

On to `Cc1ccc(NC(=O)c2cccc(C(F)(F)F)c2)cc1-c1cc(NCC(C)(C)O)nc(N2CCOCC2)c1` [Example 1062, N-(3-(2-((2-hydroxy-2-methylpropyl)amino)-6-morpholinopyridin-4-yl)-4-methylphenyl)-3-(trifluoromethyl)benzamide], for which the IC50 is 0.98 nM. `Cc1ccc(NC(=O)c2cccc(C(F)(F)F)c2)cc1-c1cc(NCC(O)C(F)(F)F)nc(N2CCOCC2)c1` (stereo not drawn) [Example 1063, N-(4-methyl-3-(2-morpholino-6-((3,3,3-trifluoro-2-hydroxypropyl)amino)pyridin-4-yl)phenyl)-3-(trifluoromethyl)benzamide]: the IC50 turned out to be 1.48 nM. As for `Cc1ccc(NC(=O)c2cccc(C(F)(F)F)c2)cc1-c1cc(N2CCOCC2)nc(N2C[C@H](O)CC2=O)c1` [Example 1064, (R)—N-(3-(2-(4-hydroxy-2-oxopyrrolidin-1-yl)-6-morpholinopyridin-4-yl)-4-methylphenyl)-3-(trifluoromethyl)benzamide], the IC50 came to 0.65 nM. As for `Cc1ccc(NC(=O)c2cccc(C(F)(F)F)c2)cc1-c1cc(N2CCOCC2)nc(N2CC[C@@H](O)C2=O)c1` [Example 1065, (R)—N-(3-(2-(3-hydroxy-2-oxopyrrolidin-1-yl)-6-morpholinopyridin-4-yl)-4-methylphenyl)-3-(trifluoromethyl)benzamide], the figure is 0.53 nM. Turning to `Cc1ccc(NC(=O)c2cccc(C(F)(F)F)c2)cc1-c1cc(NC(=O)C(C)O)nc(N2CCOCC2)c1` (stereo not drawn) [Example 1066, N-(3-(2-(2-hydroxypropanamido)-6-morpholinopyridin-4-yl)-4-methylphenyl)-3-(trifluoromethyl)benzamide], the IC50 amounted to 0.58 nM. Regarding `Cc1ccc(NC(=O)c2ccnc(C(F)F)c2)cc1-c1cc(N2CCOCC2)nc(N2CC(O)C2)c1` [Example 1067, 2-(difluoromethyl)-N-(3-(2-(3-hydroxyazetidin-1-yl)-6-morpholinopyridin-4-yl)-4-methylphenyl)isonicotinamide], the IC50 was 0.6 nM. With `Cc1ccc(NC(=O)c2ccnc(C3CC3)c2)cc1-c1cc(N2CCOCC2)nc(N2CC(O)C2)c1` [Example 1068, 2-cyclopropyl-N-(3-(2-(3-hydroxyazetidin-1-yl)-6-morpholinopyridin-4-yl)-4-methylphenyl)isonicotinamide], the IC50 came to 0.72 nM. For `Cc1ccc(NC(=O)c2ccnc(C(C)C)c2)cc1-c1cc(N2CCOCC2)nc(N2CC(O)C2)c1` [Example 1069, N-(3-(2-(3-hydroxyazetidin-1-yl)-6-morpholinopyridin-4-yl)-4-methylphenyl)-2-isopropylisonicotinamide], the IC50 turned out to be 2.64 nM.

Take `Cc1ccc(NC(=O)c2cnnc(C(F)(F)F)c2)cc1-c1cc(N2CCOCC2)nc(N2CC(O)C2)c1` [Example 1070, N-(3-(2-(3-hydroxyazetidin-1-yl)-6-morpholinopyridin-4-yl)-4-methylphenyl)-6-(trifluoromethyl)pyridazine-4-carboxamide]: the IC50 came out at 2.41 nM. `Cc1ccc(NC(=O)c2ccnc(C3(C#N)CC3)c2)cc1-c1cc(N2CCOCC2)nc(N2CC(O)C2)c1` [Example 1071, 2-(1-cyanocyclopropyl)-N-(3-(2-(3-hydroxyazetidin-1-yl)-6-morpholinopyridin-4-yl)-4-methylphenyl)isonicotinamide]: the IC50 amounted to 2.08 nM.

For `Cc1ccc(NC(=O)c2ccnc(C(F)F)c2)cc1-c1cc(N2CCOCC2)nc(N2CC(C)(O)C2)c1` [Example 1072, 2-(difluoromethyl)-N-(3-(2-(3-hydroxy-3-methylazetidin-1-yl)-6-morpholinopyridin-4-yl)-4-methylphenyl)isonicotinamide], the IC50 stood at 1.74 nM. For `Cc1ccc(NC(=O)c2cnnc(C(F)(F)F)c2)cc1-c1cc(N2CCOCC2)nc(N2CC(C)(O)C2)c1` [Example 1073, N-(3-(2-(3-hydroxy-3-methylazetidin-1-yl)-6-morpholinopyridin-4-yl)-4-methylphenyl)-6-(trifluoromethyl)pyridazine-4-carboxamide], the IC50 is 2.99 nM. `Cc1ccc(NC(=O)c2cccc(S(C)(=O)=O)c2)cc1-c1cc(N2CCOCC2)nc(N2CC(C)(O)C2)c1` [Example 1074, N-(3-(2-(3-hydroxy-3-methylazetidin-1-yl)-6-morpholinopyridin-4-yl)-4-methylphenyl)-3-(methylsulfonyl)benzamide]: the IC50 was determined as 1.86 nM.

As to `Cc1ccc(NC(=O)c2cnncc2C(F)F)cc1-c1cc(N2CCOCC2)nc(N2CC(O)C2)c1` [Example 1075, 5-(difluoromethyl)-N-(3-(2-(3-hydroxyazetidin-1-yl)-6-morpholinopyridin-4-yl)-4-methylphenyl)pyridazine-4-carboxamide], the IC50 is 682 nM. `Cc1ccc(NC(=O)c2cnnc(C3CC3)c2)cc1-c1cc(N2CCOCC2)nc(N2CC(C)(O)C2)c1` [Example 1076, 6-cyclopropyl-N-(3-(2-(3-hydroxy-3-methylazetidin-1-yl)-6-morpholinopyridin-4-yl)-4-methylphenyl)pyridazine-4-carboxamide]: the IC50 was determined as 2.31 nM. `Cc1ccc(NC(=O)c2cccc(C(F)F)c2)cc1-c1cc(N2CCOCC2)nc(N2CC(O)C2)c1` [Example 1077, 3-(difluoromethyl)-N-(3-(2-(3-hydroxyazetidin-1-yl)-6-morpholinopyridin-4-yl)-4-methylphenyl)benzamide]: the IC50 is 0.85 nM.

Regarding `Cc1ccc(NC(=O)c2ccnc(C(C)(F)F)c2)cc1-c1cc(N2CCOCC2)nc(N2CC(O)C2)c1` [Example 1078, 2-(1,1-difluoroethyl)-N-(3-(2-(3-hydroxyazetidin-1-yl)-6-morpholinopyridin-4-yl)-4-methylphenyl)isonicotinamide], the IC50 was found to be 0.67 nM. For `Cc1ncc(NC(=O)c2cccc(C(F)F)c2)cc1-c1cc(N2CCOCC2)nc(N2CC(O)C2)c1` [Example 1079, 3-(difluoromethyl)-N-(2′-(3-hydroxyazetidin-1-yl)-2-methyl-6′-morpholino-[3,4′-bipyridin]-5-yl)benzamide], the IC50 is 4.64 nM. Take `Cc1ncc(NC(=O)c2ccnc(C(C)(F)F)c2)cc1-c1cc(N2CCOCC2)nc(N2CC(O)C2)c1` [Example 1080, 2-(1,1-difluoroethyl)-N-(2′-(3-hydroxyazetidin-1-yl)-2-methyl-6′-morpholino-[3,4′-bipyridin]-5-yl)isonicotinamide]: the IC50 came to 12.9 nM. As for `Cc1ncc(NC(=O)c2ccnc(C(C)C)c2)cc1-c1cc(N2CCOCC2)nc(N2CC(O)C2)c1` [Example 1081, N-(2′-(3-hydroxyazetidin-1-yl)-2-methyl-6′-morpholino-[3,4′-bipyridin]-5-yl)-2-isopropylisonicotinamide], the IC50 turned out to be 6.43 nM. `Cc1ncc(NC(=O)c2ccnc(C(C)(C)O)c2)cc1-c1cc(N2CCOCC2)nc(N2CC(O)C2)c1` [Example 1082, N-(2′-(3-hydroxyazetidin-1-yl)-2-methyl-6′-morpholino-[3,4′-bipyridin]-5-yl)-2-(2-hydroxypropan-2-yl)isonicotinamide]: the IC50 stood at 58.2 nM.
